{
  "source": "ChEMBL document CHEMBL1201862",
  "about": "“PubChem BioAssay data set” (2004)",
  "test_in_all_cases": "inhibition of tumour cell growth, NCI panel, 48 h",
  "key": {"M14": {"system": "M14"}, "IGROV-1": {"system": "IGROV-1"}, "HOP-62": {"system": "HOP-62"}, "EKVX": {"system": "EKVX"}, "A549": {"system": "A549"}, "BT-549": {"system": "BT-549"}, "SK-OV-3": {"system": "SK-OV-3"}, "T47D": {"system": "T47D"}, "NCI-H226": {"system": "NCI-H226"}, "COLO 205": {"system": "COLO 205"}, "OVCAR-3": {"system": "OVCAR-3"}, "HL-60": {"system": "HL-60"}, "TK-10": {"system": "TK-10"}, "SR": {"system": "SR"}, "MDA-N": {"system": "MDA-N"}, "UO-31": {"system": "UO-31"}, "UACC-62": {"system": "UACC-62"}, "MDA-MB-435": {"system": "MDA-MB-435"}, "Malme-3M": {"system": "Malme-3M"}, "SK-MEL-5": {"system": "SK-MEL-5"}},
  "note": "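All cell lines were grown in 96-well plates and treated with compound for 48 hours. GI50 is the concentration that inhibits growth by half.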 Active and inactive are the calls of the source. No stated cut-off is given here; in the data, active = GI50 up to about 1.1 µM and inactive = higher.",
  "data": [
    {"smiles": "COC1CC(OC2C(C)OC(OC3C(C)OC(OC4C(C)OC(O[C@H]5CC[C@@]6(C)C(=CC[C@]7(O)[C@@H]6C[C@@H](O)[C@@]6(C)[C@]7(O)CC[C@@]6(O)C(C)=O)C5)CC4OC)CC3OC)CC2OC)OC(C)C1O", "note": "(stereo not given in full)", "values": [
      {"measurement": "GI50", "setting": "M14", "value": "> 12.5 µM (inactive)"},
      {"measurement": "GI50", "setting": "IGROV-1", "value": "> 12.5 µM (inactive)"},
      {"measurement": "GI50", "setting": "HOP-62", "value": "> 12.5 µM (inactive)"},
      {"measurement": "GI50", "setting": "EKVX", "value": "> 12.5 µM (inactive)"},
      {"measurement": "GI50", "setting": "A549", "value": "> 12.5 µM (inactive)"},
      {"measurement": "GI50", "setting": "BT-549", "value": "> 12.5 µM (inactive)"},
      {"measurement": "GI50", "setting": "SK-OV-3", "value": "> 12.5 µM (inactive)"},
      {"measurement": "GI50", "setting": "T47D", "value": "> 12.5 µM (inactive)"},
      {"measurement": "GI50", "setting": "NCI-H226", "value": "> 12.5 µM (inactive)"},
      {"measurement": "GI50", "setting": "COLO 205", "value": "> 12.5 µM (inactive)"},
      {"measurement": "GI50", "setting": "OVCAR-3", "value": "> 12.5 µM (inactive)"},
      {"measurement": "GI50", "setting": "HL-60", "value": "> 12.5 µM (inactive)"},
      {"measurement": "GI50", "setting": "TK-10", "value": "> 12.5 µM (inactive)"},
      {"measurement": "GI50", "setting": "SR", "value": "> 12.5 µM (inactive)"},
      {"measurement": "GI50", "setting": "MDA-N", "value": "> 12.5 µM (inactive)"},
      {"measurement": "GI50", "setting": "UO-31", "value": "12.4 µM (inactive)"},
      {"measurement": "GI50", "setting": "UACC-62", "value": "> 12.5 µM (inactive)"},
      {"measurement": "GI50", "setting": "MDA-MB-435", "value": "> 12.5 µM (inactive)"},
      {"measurement": "GI50", "setting": "Malme-3M", "value": "> 12.5 µM (inactive)"},
      {"measurement": "GI50", "setting": "SK-MEL-5", "value": "> 12.5 µM (inactive)"}
    ]},
    {"smiles": "CCOC(=O)Cc1ccc(Nc2nc3ccccc3nc2C(=O)OCC)cc1", "values": [
      {"measurement": "GI50", "setting": "M14", "value": "> 100 µM (inactive)"},
      {"measurement": "GI50", "setting": "IGROV-1", "value": "57.5 µM (inactive)"},
      {"measurement": "GI50", "setting": "HOP-62", "value": "38.3 µM (inactive)"},
      {"measurement": "GI50", "setting": "EKVX", "value": "38.4 µM (inactive)"},
      {"measurement": "GI50", "setting": "A549", "value": "35.2 µM (inactive)"},
      {"measurement": "GI50", "setting": "BT-549", "value": "26.2 µM (inactive)"},
      {"measurement": "GI50", "setting": "SK-OV-3", "value": "54.1 µM (inactive)"},
      {"measurement": "GI50", "setting": "T47D", "value": "36.6 µM (inactive)"},
      {"measurement": "GI50", "setting": "NCI-H226", "value": "4.8 µM (inactive)"},
      {"measurement": "GI50", "setting": "COLO 205", "value": "> 100 µM (inactive)"},
      {"measurement": "GI50", "setting": "OVCAR-3", "value": "> 100 µM (inactive)"},
      {"measurement": "GI50", "setting": "HL-60", "value": "> 100 µM (inactive)"},
      {"measurement": "GI50", "setting": "TK-10", "value": "37.1 µM (inactive)"},
      {"measurement": "GI50", "setting": "SR", "value": "> 100 µM (inactive)"},
      {"measurement": "GI50", "setting": "MDA-N", "value": "> 100 µM (inactive)"},
      {"measurement": "GI50", "setting": "UO-31", "value": "14.5 µM (inactive)"},
      {"measurement": "GI50", "setting": "UACC-62", "value": "45.2 µM (inactive)"},
      {"measurement": "GI50", "setting": "MDA-MB-435", "value": "> 100 µM (inactive)"},
      {"measurement": "GI50", "setting": "Malme-3M", "value": "52.1 µM (inactive)"},
      {"measurement": "GI50", "setting": "SK-MEL-5", "value": "46.1 µM (inactive)"}
    ]},
    {"smiles": "COc1c(-c2ccc(F)cc2)oc2c(CC(=O)O)cccc2c1=O", "values": [
      {"measurement": "GI50", "setting": "M14", "value": "> 100 µM (inactive)"},
      {"measurement": "GI50", "setting": "IGROV-1", "value": "> 100 µM (inactive)"},
      {"measurement": "GI50", "setting": "HOP-62", "value": "> 100 µM (inactive)"},
      {"measurement": "GI50", "setting": "EKVX", "value": "> 100 µM (inactive)"},
      {"measurement": "GI50", "setting": "A549", "value": "> 100 µM (inactive)"},
      {"measurement": "GI50", "setting": "BT-549", "value": "> 100 µM (inactive)"},
      {"measurement": "GI50", "setting": "SK-OV-3", "value": "> 100 µM (inactive)"},
      {"measurement": "GI50", "setting": "T47D", "value": "> 100 µM (inactive)"},
      {"measurement": "GI50", "setting": "NCI-H226", "value": "> 100 µM (inactive)"},
      {"measurement": "GI50", "setting": "COLO 205", "value": "> 100 µM (inactive)"},
      {"measurement": "GI50", "setting": "OVCAR-3", "value": "> 100 µM (inactive)"},
      {"measurement": "GI50", "setting": "HL-60", "value": "> 100 µM (inactive)"},
      {"measurement": "GI50", "setting": "TK-10", "value": "> 100 µM (inactive)"},
      {"measurement": "GI50", "setting": "SR", "value": "> 100 µM (inactive)"},
      {"measurement": "GI50", "setting": "MDA-N", "value": "> 100 µM (inactive)"},
      {"measurement": "GI50", "setting": "UO-31", "value": "40.9 µM (inactive)"},
      {"measurement": "GI50", "setting": "UACC-62", "value": "> 100 µM (inactive)"},
      {"measurement": "GI50", "setting": "MDA-MB-435", "value": "> 100 µM (inactive)"},
      {"measurement": "GI50", "setting": "Malme-3M", "value": "> 100 µM (inactive)"},
      {"measurement": "GI50", "setting": "SK-MEL-5", "value": "> 100 µM (inactive)"}
    ]},
    {"smiles": "N#C/C(N)=C(C#N)/N=C/Nc1ccccc1N", "values": [
      {"measurement": "GI50", "setting": "M14", "value": "> 100 µM (inactive)"},
      {"measurement": "GI50", "setting": "IGROV-1", "value": "> 100 µM (inactive)"},
      {"measurement": "GI50", "setting": "HOP-62", "value": "> 100 µM (inactive)"},
      {"measurement": "GI50", "setting": "EKVX", "value": "> 100 µM (inactive)"},
      {"measurement": "GI50", "setting": "A549", "value": "> 100 µM (inactive)"},
      {"measurement": "GI50", "setting": "BT-549", "value": "> 100 µM (inactive)"},
      {"measurement": "GI50", "setting": "SK-OV-3", "value": "> 100 µM (inactive)"},
      {"measurement": "GI50", "setting": "T47D", "value": "> 100 µM (inactive)"},
      {"measurement": "GI50", "setting": "NCI-H226", "value": "> 100 µM (inactive)"},
      {"measurement": "GI50", "setting": "COLO 205", "value": "> 100 µM (inactive)"},
      {"measurement": "GI50", "setting": "OVCAR-3", "value": "> 100 µM (inactive)"},
      {"measurement": "GI50", "setting": "HL-60", "value": "> 100 µM (inactive)"},
      {"measurement": "GI50", "setting": "TK-10", "value": "> 100 µM (inactive)"},
      {"measurement": "GI50", "setting": "SR", "value": "> 100 µM (inactive)"},
      {"measurement": "GI50", "setting": "MDA-N", "value": "> 100 µM (inactive)"},
      {"measurement": "GI50", "setting": "UO-31", "value": "> 100 µM (inactive)"},
      {"measurement": "GI50", "setting": "UACC-62", "value": "> 100 µM (inactive)"},
      {"measurement": "GI50", "setting": "MDA-MB-435", "value": "> 100 µM (inactive)"},
      {"measurement": "GI50", "setting": "Malme-3M", "value": "> 100 µM (inactive)"},
      {"measurement": "GI50", "setting": "SK-MEL-5", "value": "> 100 µM (inactive)"}
    ]},
    {"smiles": "O=C(c1c(F)c(F)c(F)c(F)c1F)N1CCN(C(=O)c2c(F)c(F)c(F)c(F)c2F)C1=S", "values": [
      {"measurement": "GI50", "setting": "M14", "value": "1.56 µM (inactive)"},
      {"measurement": "GI50", "setting": "IGROV-1", "value": "4.4 µM (inactive)"},
      {"measurement": "GI50", "setting": "HOP-62", "value": "15.2 µM (inactive)"},
      {"measurement": "GI50", "setting": "EKVX", "value": "13 µM (inactive)"},
      {"measurement": "GI50", "setting": "A549", "value": "14.4 µM (inactive)"},
      {"measurement": "GI50", "setting": "BT-549", "value": "13.6 µM (inactive)"},
      {"measurement": "GI50", "setting": "SK-OV-3", "value": "5.05 µM (inactive)"},
      {"measurement": "GI50", "setting": "T47D", "value": "6.46 µM (inactive)"},
      {"measurement": "GI50", "setting": "NCI-H226", "value": "15.4 µM (inactive)"},
      {"measurement": "GI50", "setting": "COLO 205", "value": "7.01 µM (inactive)"},
      {"measurement": "GI50", "setting": "OVCAR-3", "value": "5.08 µM (inactive)"},
      {"measurement": "GI50", "setting": "HL-60", "value": "1.07 µM (active)"},
      {"measurement": "GI50", "setting": "TK-10", "value": "13.9 µM (inactive)"},
      {"measurement": "GI50", "setting": "SR", "value": "3.38 µM (inactive)"},
      {"measurement": "GI50", "setting": "MDA-N", "value": "2.48 µM (inactive)"},
      {"measurement": "GI50", "setting": "UO-31", "value": "5.55 µM (inactive)"},
      {"measurement": "GI50", "setting": "UACC-62", "value": "4.5 µM (inactive)"},
      {"measurement": "GI50", "setting": "MDA-MB-435", "value": "3.3 µM (inactive)"},
      {"measurement": "GI50", "setting": "Malme-3M", "value": "4.58 µM (inactive)"},
      {"measurement": "GI50", "setting": "SK-MEL-5", "value": "6.9 µM (inactive)"}
    ]}
  ]
}
